Data reported in BindingDB's records for patent US20250313563 (The Broad Institute, 2025).
Where “and” joins values, the source holds several entries; their conditions need not be identical. Identical values can stand only once.

Legend:
[1] = target: Glycogen synthase kinase-3 alpha (Homo sapiens, UniProt P49840); experiment: TR-FRET Assay
Method in brief: (§1)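 Signal is measured as TR-FRET between a terbium anti-phospho-Ser641 antibody and streptavidin-d2, added after an EDTA quench. Compounds are preincubated 30 min in assay buffer.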

[2] = target: Glycogen synthase kinase-3 beta (Homo sapiens, UniProt P49841); experiment: TR-FRET Assay
Glycogen synthase kinase-3 beta, sequence (P49841 whole entry): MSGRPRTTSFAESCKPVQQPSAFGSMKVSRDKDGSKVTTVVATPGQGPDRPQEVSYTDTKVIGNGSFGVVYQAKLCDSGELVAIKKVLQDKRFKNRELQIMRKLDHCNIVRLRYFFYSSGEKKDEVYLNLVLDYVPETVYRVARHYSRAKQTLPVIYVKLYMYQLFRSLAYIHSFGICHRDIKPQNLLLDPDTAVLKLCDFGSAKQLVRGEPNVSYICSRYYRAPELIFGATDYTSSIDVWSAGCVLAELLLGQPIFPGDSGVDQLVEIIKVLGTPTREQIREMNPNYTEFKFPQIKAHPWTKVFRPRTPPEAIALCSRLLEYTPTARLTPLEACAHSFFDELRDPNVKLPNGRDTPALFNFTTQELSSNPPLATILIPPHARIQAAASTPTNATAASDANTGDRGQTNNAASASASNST
Method in brief: as §1

Glycogen synthase kinase-3 alpha, sequence (P49840 whole entry): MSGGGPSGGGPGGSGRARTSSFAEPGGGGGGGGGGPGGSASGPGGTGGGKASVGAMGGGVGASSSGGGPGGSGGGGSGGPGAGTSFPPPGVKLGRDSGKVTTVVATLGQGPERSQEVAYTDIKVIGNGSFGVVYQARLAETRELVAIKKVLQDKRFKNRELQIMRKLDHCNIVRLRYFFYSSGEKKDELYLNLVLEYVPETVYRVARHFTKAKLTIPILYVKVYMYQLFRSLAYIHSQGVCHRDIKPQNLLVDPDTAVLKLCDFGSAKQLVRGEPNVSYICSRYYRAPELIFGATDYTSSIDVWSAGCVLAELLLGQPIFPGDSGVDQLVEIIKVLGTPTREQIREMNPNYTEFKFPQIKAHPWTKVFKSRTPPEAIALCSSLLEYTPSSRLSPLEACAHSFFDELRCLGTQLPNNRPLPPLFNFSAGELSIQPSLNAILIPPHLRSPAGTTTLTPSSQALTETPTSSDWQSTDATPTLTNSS

| IC50 [1] | IC50 [2] | SMILES |
| --- | --- | --- |
| 1 to 5 µM | > 5 µM | CC[C@]1(c2cccc(-c3cc(C)nnc3C)c2)C2=C(CC(C)(C)NC2=O)NC2N=NC(C)=C21 (stereo partly specified) [US20250313563, Compound 949332] |
| < 0.1 µM | < 0.1 µM | CC(=O)N1C[C@]2(C[C@]3(CO2)C2=C(N=NC2)NC2=C3C(=O)CC(C)(C)C2)[C@H]1C [US20250313563, Compound 948439] |
| < 0.1 µM | 0.1 to 1 µM | CC[C@@]1(c2cccc(C3=C4CC=C(Cl)C=C4N=CC3)c2)C2=CN=NC2NC2=C1C(=O)NC(C)(C)C2 (stereo partly specified) [US20250313563, Compound 948368] |
| 1 to 5 µM | > 5 µM | CC[C@@]1(c2cccc(-c3ccnc4cnccc34)c2)C2=CN=NC2NC2=C1C(=O)NC(C)(C)C2 (stereo partly specified) [US20250313563, Compound 949110] |
| 0.1 to 1 µM | 0.1 to 1 µM | CCC1(c2cccc(S(C)(=O)=O)c2)C2=C(CC(C)(C)NC2=O)NC2N=NC(C)=C21 (stereo unspecified) [US20250313563, Compound 947395] |
| > 5 µM | > 5 µM | CC[C@]1(c2cccc(-c3cc(C)nn3C)c2)C2=C(N=NC2)NC2=C1C(=O)C(C)(C)C2 [US20250313563, Compound 950827] |
| < 0.1 µM | < 0.1 µM | CC1(C)CC(=O)C2=C(C1)NC1=C(CN=N1)C21CCN(S(=O)(=O)c2ccn(-c3ccccc3)n2)CC1 [US20250313563, Compound 947461] |
| < 0.1 µM | 0.1 to 1 µM | CC[C@@]1(c2cccc(-c3c(C)cncc3C)c2)C2=CN=NC2NC2=C1C(=O)CC(C)(C)C2 (stereo partly specified) [US20250313563, Compound 947659] |
| 0.1 to 1 µM | 1 to 5 µM | CC[C@]1(c2cccc(-c3cnn4c3CCCC4)c2)C2=C(CC(C)(C)NC2=O)NC2N=NC(C)=C21 (stereo partly specified) [US20250313563, Compound 947809] |
| < 0.1 µM | < 0.1 µM | CC[C@]1(c2cccc(-c3ccnn3C)c2)C2=CN=NC2NC2=C1C(=O)N[C@@]1(CCOC1)C2 (stereo partly specified) [US20250313563, Compound 948017] |
| < 0.1 µM | < 0.1 µM | CC1(C)CC(=O)C2=C(C1)NC1=C(CN=N1)C21COC2(CN(C(=O)CC3CCCC3)C2)C1 (stereo unspecified) [US20250313563, Compound 947293] |
| < 0.1 µM | < 0.1 µM | CCC1(c2cccc(-c3c(C)nn(C)c3C)c2)C2=C(CC(C)(C)NC2=O)NC2N=NC(C(F)(F)F)=C21 (stereo unspecified) [US20250313563, Compound 947568] |
| < 0.1 µM | < 0.1 µM | CC[C@]1(c2cccc(C3=CN=NC3)c2)C2=C(CC(C)(C)NC2=O)NC2N=NC(C(F)(F)F)=C21 (stereo partly specified) [US20250313563, Compound 948307] |
| 1 to 5 µM | > 5 µM | CC[C@]1(c2cccc(-c3cnn4c3CC(C)(C)CC4)c2)C2=CN=NC2NC2=C1C(=O)NC(C)(C)C2 (stereo partly specified) [US20250313563, Compound 949265] |
| < 0.1 µM | < 0.1 µM | CCC1(c2cccc(-c3cc(C)ncc3F)c2)C2=C(CC(C)(C)NC2=O)NC2N=NC(C)=C21 (stereo unspecified) [US20250313563, Compound 948761] |
| < 0.1 µM and 0.1 to 1 µM | < 0.1 µM and 0.1 to 1 µM | Cc1ncc(S(=O)(=O)N2CCC3(CC2)C2=C(N=NC2)NC2=C3C(=O)CC(C)(C)C2)o1 [US20250313563, Compound 947611] |

Second part, the compound before the results:

| SMILES | IC50 [1] | IC50 [2] |
| --- | --- | --- |
| CC1(C)CC(=O)C2=C(C1)NC1=C(CN=N1)C21COC2(CN(C(=O)C3(C)CC(F)C3)C2)C1 (stereo unspecified) [US20250313563, Compound 947271] | < 0.1 µM | 0.1 to 1 µM |
| CC[C@@]1(c2cccc(-c3ccnc(C)c3)c2)C2=CN=NC2NC2=C1C(=O)[C@@H](F)C(C)(C)C2 (stereo partly specified) [US20250313563, Compound 945475] | < 0.1 µM and 1 to 5 µM | 0.1 to 1 µM and > 5 µM |
| CC[C@]1(c2cccc(N3C[C@H](C)[C@@H](C)C3)c2)C2=CN=NC2NC2=C1C(=O)CC(C)(C)C2 (stereo partly specified) [US20250313563, Compound 924312] | 0.1 to 1 µM | 1 to 5 µM |
| CCC1(c2cccc(NS(C)(=O)=O)c2)C2=CN=NC2NC2=C1C(=O)CC(C)(C)C2 (stereo unspecified) [US20250313563, Compound 913253] | < 0.1 µM | < 0.1 µM |
| CCC1(c2cccc(N3CCN(C)CC3)c2)C2=CN=NC2NC2=C1C(=O)CC(C)(C)C2 (stereo unspecified) [US20250313563, Compound 810379] | > 1.67 µM | > 5 µM |
| CC[C@]1(c2cccc(N(C)c3cnccn3)c2)C2=CN=NC2NC2=C1C(=O)CC(C)(C)C2 (stereo partly specified) [US20250313563, Compound 915316] | < 0.1 µM | < 0.1 µM |
| CCC1(c2cccc(-c3cnn(C)c3)c2)C2=C(CC(C)(C)NC2=O)NC2N=NC(C)=C21 (stereo unspecified) [US20250313563, Compound 944027] | < 0.1 µM | 0.1 to 1 µM |
| CC1(C)CC2=C(C(=O)N1)[C@@](C)(c1cccc(S(C)(=O)=O)c1)C1=C(N=NC1C1CC1)N2 (stereo partly specified) [US20250313563, Compound 114679] | < 0.1 µM | 0.1 to 1 µM |
| CC1(C)CC(=O)C2=C(C1)NC1=C(CN=N1)C21CN(S(=O)(=O)c2ccccc2F)C1 [US20250313563, Compound 913263] | 0.1 to 1 µM | 0.1 to 1 µM |
| CC1(C)CC(=O)C2=C(C1)NC1=C(CN=N1)[C@@]21CCOC(C)(C)C1 [US20250313563, Compound 924299] | 0.1 to 1 µM | 0.1 to 1 µM |
| CC[C@@]1(c2cccc(S(C)(=O)=O)c2)C2=CN=NC2NC2=C1C(=O)NC(C)(C)C2 (stereo partly specified) [US20250313563, Compound 945604] | < 0.1 µM | < 0.1 µM |
| CCC1(c2ccccc2)C2=C(N=NC2)NC(C)=C1C(C)=O (stereo unspecified) [US20250313563, Compound 806940] | > 5 µM | > 5 µM |
| CC[C@@]1(c2ccccc2)C2=CN=NC2NC2=C1C(=O)C[C@H](c1ccccc1)C2 (stereo partly specified) [US20250313563, Compound 791264] | 0.1 to 1 µM | > 5 µM |
| CC[C@]1(c2cccc(-c3cc[n+]([O-])c(C)c3)c2)C2=CN=NC2NC2=C1C(=O)CC(C)(C)C2 (stereo partly specified) [US20250313563, Compound 946055] | 0.1 to 1 µM | 1 to 5 µM |
| C[C@@H]1CCC[C@]2(C1)C1=C(N=NC1)NC1=C2C(=O)CC(C)(C)C1 [US20250313563, Compound 874537] | 0.1 to 1 µM | 0.1 to 1 µM |
| CCC1(c2cccc(N(C)c3ccccn3)c2)C2=CN=NC2NC2=C1C(=O)CC(C)(C)C2 (stereo unspecified) [US20250313563, Compound 874294] | < 0.1 µM | 0.1 to 1 µM |
| CC(=O)N1CC2(C1)C[C@@]1(CO2)C2=C(N=NC2)NC2=C1C(=O)CC(C)(C)C2 [US20250313563, Compound 926861] | < 0.1 µM | < 0.1 µM |
| CC[C@@]1(c2cccc(N3CCCCC3)c2)C2=CN=NC2NC2=C1C(=O)CC(C)(C)C2 (stereo partly specified) [US20250313563, Compound 810369] | < 0.1 µM | 0.1 to 1 µM |
| CC1CCCC1C(=O)N1CC2(C1)CC1(CO2)C2=C(N=NC2)NC2=C1C(=O)CC(C)(C)C2 (stereo unspecified) [US20250313563, Compound 947274] | < 0.1 µM | 0.1 to 1 µM |

| SMILES | IC50 [1] | IC50 [2] |
| --- | --- | --- |
| CCC1(c2cccc(N3CCc4ccncc4C3)c2)C2=CN=NC2NC2=C1C(=O)CC(C)(C)C2 (stereo unspecified) [US20250313563, Compound 917148] | 1 to 5 µM | > 5 µM |
| CC[C@]1(c2cccc(C)c2)C2=CN=NC2NC2=C1C(=O)CC(C)(C)C2 (stereo partly specified) [US20250313563, Compound 789560] | < 0.1 µM and 1 to 5 µM | 0.1 to 1 µM |
| COc1ccc(S(=O)(=O)N2CCC3(CC2)C2=C(N=NC2)NC2=C3C(=O)CC(C)(C)C2)cn1 [US20250313563, Compound 945666] | < 0.1 µM | < 0.1 µM |
| CC1(C)CC(=O)C2=C(C1)NC1=C(CN=N1)C2(C)CCc1ccccc1 (stereo unspecified) [US20250313563, Compound 819562] | 1 to 5 µM | > 5 µM |
| CC[C@@]1(c2cccc(-c3ccncc3OC)c2)C2=CN=NC2NC2=C1C(=O)CC(C)(C)C2 (stereo partly specified) [US20250313563, Compound 945471] | 1 to 5 µM and > 5 µM | 1 to 5 µM and > 5 µM |
| CCC1(c2cccc(-c3cnn4c3CCCC4)c2)C2=C(CC(C)(C)CC2=O)NC2N=NC(C)=C21 (stereo unspecified) [US20250313563, Compound 884002] | < 0.1 µM | < 0.1 µM |
| CC1(C)CC(=O)C2=C(C1)NC1=C(CN=N1)C21CN(c2ccncn2)C1 [US20250313563, Compound 909209] | 1 to 5 µM | 1 to 5 µM |
| CC1(C)CC(=O)C2=C(C1)NC1N=NC(C3(C(F)(F)F)CC3)=C1C21CCc2c(F)cccc21 (stereo unspecified) [US20250313563, Compound 810591] | 0.1 to 1 µM | 0.1 to 1 µM |
| COc1ccc(S(=O)(=O)N2CCCC3(CC2)C2=CN=NC2NC2=C3C(=O)CC(C)(C)C2)cc1 (stereo unspecified) [US20250313563, Compound 917141] | < 0.1 µM | 0.1 to 1 µM |
| CC[C@]1(c2cccc(C(F)(F)F)c2)C2=CN=NC2NC2=C1C(=O)N[C@@H](c1ccccc1)C2 (stereo partly specified) [US20250313563, Compound 945362] | 1 to 5 µM | > 5 µM |
| Cc1noc(C2CCC3(CC2)C2=C(N=NC2)NC2=C3C(=O)CC(C)(C)C2)n1 (stereo unspecified) [US20250313563, Compound 943895] | 0.1 to 1 µM | 0.1 to 1 µM |
| CC1(C)CC(=O)C2=C(C1)NC1=C(CN=N1)C21CCC(C(=O)N2CCCC2)CC1 (stereo unspecified) [US20250313563, Compound 945396] | 0.1 to 1 µM | 0.1 to 1 µM |
| CC[C@]1(c2ccccc2)C2=C(N=NC2)NC2=C1C(=O)[C@@H]1CC[C@H]2C1 [US20250313563, Compound 791270] | 0.1 to 1 µM | > 1.7 µM |
| CC[C@]1(c2cccc(N3CCOc4ncccc43)c2)C2=CN=NC2NC2=C1C(=O)CC(C)(C)C2 (stereo partly specified) [US20250313563, Compound 932643] | 0.1 to 1 µM | 1 to 5 µM |
| CC[C@@]1(c2cccc(N(C)c3cccc(C)n3)c2)C2=CN=NC2NC2=C1C(=O)CC(C)(C)C2 (stereo partly specified) [US20250313563, Compound 932664] | < 0.1 µM | 0.1 to 1 µM |
| CC[C@@]1(c2cccc(Br)c2)C2=CN=NC2NC2=C1C(=O)C[C@@H](C)C2 (stereo partly specified) [US20250313563, Compound 810485] | > 5 µM | > 5 µM |
| CCC1(c2cccc(N(C)C(=O)CN3CCCC3)c2)C2=CN=NC2NC2=C1C(=O)CC(C)(C)C2 (stereo unspecified) [US20250313563, Compound 909202] | 0.1 to 1 µM | 1 to 5 µM |
| C[C@H]1CCC[C@]2(C1)C1=C(N=NC1)NC1=C2C(=O)CC(C)(C)C1 [US20250313563, Compound 893319] | 0.1 to 1 µM | 0.1 to 1 µM |
